Experimental data as given in patent publication US9296741B2, “Bromodomain inhibitors” (priority 2012, dated 2016).

How the values were obtained:
[1] = molecular target: human BRD4 first bromodomain (BDI_K57-E168) (Homo sapiens (Human), UniProt O60885); test: TR-FRET bromodomain binding assay, BRD4 first bromodomain
[2] = molecular target: human BRD4 second bromodomain (BDII_E352-M457) (Homo sapiens (Human), UniProt O60885); test: TR-FRET bromodomain binding assay, BRD4 second bromodomain
[3] = tested on: breast cancer cell line MX-1; test: MX-1 cell line proliferation assay; type: cell-based, human; conditions: Homo sapiens, MX1, 72 h; MX-1 cells, 3-day proliferation, Cell Titer Glo; read-out: Cellular proliferation: EC50
[4] = Human liver microsome stability assay; type: in vitro ADME; conditions: both sexes, human, microsomes, pH 7.4
[5] = Rat liver microsome stability assay; type: in vitro ADME; conditions: rat liver microsomes (male Sprague-Dawley), 0.5 μM test compound, pH 7.4, 37° C.; for half-life at 0.5 μM: 0.25 mg/mL microsomal protein, read-out: Stability in rat liver microsomes (t1/2 in minutes)
[6] = Mouse liver microsome stability assay; type: in vitro ADME; conditions: male, CD1, mouse, microsomes, pH 7.4

SMILES	Ki [1]	Ki [2]	EC50 [3]	half-life at 0.5 μM [4]	half-life at 0.5 μM [5]	half-life at 0.5 μM [6]	Stability in rat liver microsomes (t1/2 in minutes) ([5]; […] microsomal protein)
CCCS(=O)(=O)Nc1ccc(Oc2ccc(F)cc2F)c(-c2cn(C)c(=O)c3[nH]ccc23)c1 [Example 115, N-[4-(2,4-difluorophenoxy)-3-(6-methyl-7-oxo-6,7-dihydro-1H-pyrrolo[2,3-c]pyridin-4-yl)phenyl]propane-1-sulfonamide]	67.1 nM	26.9 nM	55 nM	41 min	38 min	55 min	
Cn1cc(-c2cc(S(C)(=O)=O)ccc2OC[C@H]2CCC(=O)N2)c2cc[nH]c2c1=O [Example 226, 6-methyl-4-[5-(methylsulfonyl)-2-{[(2R)-5-oxopyrrolidin-2-yl]methoxy}phenyl]-1,6-dihydro-7H-pyrrolo[2,3-c]pyridin-7-one]	141 nM	438 nM	> 3000 nM	105 min	> 120 min	> 120 min	
CNS(=O)(=O)c1cnc(OCC2CC2)c(-c2cn(C)c(=O)c3[nH]ccc23)c1 [Example 208, 6-(cyclopropylmethoxy)-N-methyl-5-(6-methyl-7-oxo-6,7-dihydro-1H-pyrrolo[2,3-c]pyridin-4-yl)pyridine-3-sulfonamide]	5.6 nM	6 nM	23.5 nM	88 min	23 min	37 min	
Cn1cc(-c2cc(NS(=O)(=O)C3CC3)ccc2Oc2ccc(F)cc2F)c2cc[nH]c2c1=O [Example 235, N-[4-(2,4-difluorophenoxy)-3-(6-methyl-7-oxo-6,7-dihydro-1H-pyrrolo[2,3-c]pyridin-4-yl)phenyl]cyclopropanesulfonamide]	17.4 nM	7 nM	66.5 nM	81 min	49 min	22 min	
Cn1cc(-c2cc(S(C)(=O)=O)ccc2OCC2CCCC2)c2cc[nH]c2c1=O [Example 214, 4-[2-(cyclopentylmethoxy)-5-(methylsulfonyl)phenyl]-6-methyl-1,6-dihydro-7H-pyrrolo[2,3-c]pyridin-7-one]	2.4 nM	1.7 nM	10.5 nM	27 min	9 min	8 min	
Cn1cc(-c2cc(S(C)(=O)=O)ccc2Oc2ccc(S(C)(=O)=O)cc2)c2cc[nH]c2c1=O [Example 270, 6-methyl-4-{5-(methylsulfonyl)-2-[4-(methylsulfonyl)phenoxy]phenyl}-1,6-dihydro-7H-pyrrolo[2,3-c]pyridin-7-one]			421 nM	> 120 min	> 120 min	> 120 min	
Cn1cc(-c2cc(NS(=O)(=O)CCF)ccc2Oc2ccc(F)cc2F)c2cc[nH]c2c1=O [Example 64, N-[4-(2,4-difluorophenoxy)-3-(6-methyl-7-oxo-6,7-dihydro-1H-pyrrolo[2,3-c]pyridin-4-yl)phenyl]-2-fluoroethanesulfonamide]	53.1 nM	63.3 nM	773 nM		3 min	4 min	
CCOC(=O)c1ccc(NC2CCCC2)c(-c2cn(C)c(=O)c3[nH]ccc23)c1 [Example 40, ethyl 4-(cyclopentylamino)-3-(6-methyl-7-oxo-6,7-dihydro-1H-pyrrolo[2,3-c]pyridin-4-yl)benzoate]			167 nM	13.1 min		6 min	1 min
Cn1cc(-c2cc(NS(=O)(=O)CC(F)(F)F)ccc2OC2CCOCC2)c2cc[nH]c2c1=O [Example 100, 2,2,2-trifluoro-N-[3-(6-methyl-7-oxo-6,7-dihydro-1H-pyrrolo[2,3-c]pyridin-4-yl)-4-(tetrahydro-2H-pyran-4-yloxy)phenyl]ethanesulfonamide]			107 nM	77 min	71 min	60 min	
CCOC(=O)c1cc2c(-c3cc(N)ccc3Oc3ccccc3)nn(C)c(=O)c2[nH]1 [Example 74, ethyl 4-(5-amino-2-phenoxyphenyl)-6-methyl-7-oxo-6,7-dihydro-1H-pyrrolo[2,3-d]pyridazine-2-carboxylate]			275 nM	17 min	3 min	5 min	
Cn1cc(-c2cc(C(=O)N3CCCC3)ccc2Oc2ccc(F)cc2F)c2cc[nH]c2c1=O [Example 55, 4-[2-(2,4-difluorophenoxy)-5-(pyrrolidin-1-ylcarbonyl)phenyl]-6-methyl-1,6-dihydro-7H-pyrrolo[2,3-c]pyridin-7-one]			200 nM	25 min	9 min	13 min	
CCCS(=O)(=O)Nc1ccc(OC2CCC(F)(F)CC2)c(-c2cn(C)c(=O)c3[nH]ccc23)c1 [Example 102, N-{4-[(4,4-difluorocyclohexyl)oxy]-3-(6-methyl-7-oxo-6,7-dihydro-1H-pyrrolo[2,3-c]pyridin-4-yl)phenyl}propane-1-sulfonamide]			61.5 nM	36 min	3 min	8 min	
CN(C)Cc1cc2c(-c3cc(S(C)(=O)=O)ccc3Oc3ccc(F)cc3F)cn(C)c(=O)c2[nH]1 [Example 279, 4-[2-(2,4-difluorophenoxy)-5-(methylsulfonyl)phenyl]-2-[(dimethylamino)methyl]-6-methyl-1,6-dihydro-7H-pyrrolo[2,3-c]pyridin-7-one]	31.4 nM	131 nM	364 nM		41 min	91 min	

The next lines start with the values.

Ki [1]	Ki [2]	EC50 [3]	half-life at 0.5 μM [4]	half-life at 0.5 μM [5]	half-life at 0.5 μM [6]	Stability in rat liver microsomes (t1/2 in minutes) ([5]; […] microsomal protein)	SMILES
4.4 nM	17.9 nM	65.3 nM	27 min	8 min	7 min		CNS(=O)(=O)Nc1ccc(OC2CCC(F)(F)CC2)c(-c2cn(C)c(=O)c3[nH]ccc23)c1 [Example 104, N-{4-[(4,4-difluorocyclohexyl)oxy]-3-(6-methyl-7-oxo-6,7-dihydro-1H-pyrrolo[2,3-c]pyridin-4-yl)phenyl}-N′-methylsulfuric diamide]
20.9 nM	42.2 nM	424 nM		3 min	43 min		CCN(C)C(=O)c1cc2c(-c3cc(NS(C)(=O)=O)ccc3Oc3ccccc3)nn(C)c(=O)c2[nH]1 [Example 83, N-ethyl-N,6-dimethyl-4-{5-[(methylsulfonyl)amino]-2-phenoxyphenyl}-7-oxo-6,7-dihydro-1H-pyrrolo[2,3-d]pyridazine-2-carboxamide]
14.1 nM	19 nM	67.5 nM	56 min	32 min	9 min		CCS(=O)(=O)c1ccc(OC2CCN(C(=O)OC(C)(C)C)CC2)c(-c2cn(C)c(=O)c3[nH]ccc23)c1 [Example 312, tert-butyl 4-[4-(ethylsulfonyl)-2-(6-methyl-7-oxo-6,7-dihydro-1H-pyrrolo[2,3-c]pyridin-4-yl)phenoxy]piperidine-1-carboxylate]
6.6 nM	5 nM	6.1 nM	63 min	24 min	43 min		CC(C)COc1ccc(S(C)(=O)=O)cc1-c1cn(C)c(=O)c2[nH]ccc12 [Example 221, 6-methyl-4-[2-(2-methylpropoxy)-5-(methylsulfonyl)phenyl]-1,6-dihydro-7H-pyrrolo[2,3-c]pyridin-7-one]
		13.3 nM	54 min	24 min	48 min		CC1CC1COc1ccc(S(C)(=O)=O)cc1-c1cn(C)c(=O)c2[nH]ccc12 (stereo not drawn) [Example 223, 6-methyl-4-{2-[(2-methylcyclopropyl)methoxy]-5-(methylsulfonyl)phenyl}-1,6-dihydro-7H-pyrrolo[2,3-c]pyridin-7-one]
		481 nM	> 120 min	> 120 min	> 120 min		CCS(=O)(=O)c1ccc(N2CCN(C)CC2)c(-c2cn(C)c(=O)c3[nH]ccc23)c1 [Example 331, 4-[5-(ethylsulfonyl)-2-(4-methylpiperazin-1-yl)phenyl]-6-methyl-1,6-dihydro-7H-pyrrolo[2,3-c]pyridin-7-one]
		33.8 nM	47 min	16 min	37 min		Cn1cc(-c2cc(NS(=O)(=O)CC(F)(F)F)ccc2OC2CCC(F)(F)CC2)c2cc[nH]c2c1=O [Example 103, N-{4-[(4,4-difluorocyclohexyl)oxy]-3-(6-methyl-7-oxo-6,7-dihydro-1H-pyrrolo[2,3-c]pyridin-4-yl)phenyl}-2,2,2-trifluoroethanesulfonamide]
		478 nM	9 min	3 min	4 min		CCNc1ccc(Oc2ccccc2)c(-c2nn(C)c(=O)c3[nH]c(C(=O)OCC)cc23)c1 [Example 75, ethyl 4-[5-(ethylamino)-2-phenoxyphenyl]-6-methyl-7-oxo-6,7-dihydro-1H-pyrrolo[2,3-d]pyridazine-2-carboxylate]
661 nM	1170 nM	515 nM	34 min		21 min		Cn1cc(-c2cc(-c3cccc(F)c3)ccc2OCC2CC2)c2cc[nH]c2c1=O [Example 334, 4-[4-(cyclopropylmethoxy)-3′-fluorobiphenyl-3-yl]-6-methyl-1,6-dihydro-7H-pyrrolo[2,3-c]pyridin-7-one]
